Reference: patent publication US20230089534A1, “PHENOLIC COMPOSITIONS FOR MALODOR REDUCTION” (Milliken & Company, priority 2021, published 2023)

Legend:
[1] = Wash test: malodor marker reduction on artificial body soil treated fabric, headspace GCMS; conditions: Table 5, vs control detergent nil antioxidant
Experimental: In order to test the efficiency of the antioxidants for malodor reduction, an artificial body soil (ABS) was prepared. The artificial body soil is a modified version of the soil from ASTM D4265-21. To prepare the ABS, the components of Table 1 were combined in an 8 oz. jar and heated to 70° C. until fully solubilized.
50/50 Cotton/poly interlock fabric (Style 7439 GB, Testfabrics, Inc.) was cut into 2 in×5 in swatches. Cut swatches were dosed with three equally spaced 0.36 mL portions of artificial body soil composition. Fabrics were then sealed together in a mylar bag and incubated at 37° C. for four to seven days prior to wash treatment.
Antioxidant solution was prepared by dissolving the antioxidant compound to be tested in methanol at 0.5% w/w. The antioxidant solution was dosed into the wash water (500 mL) using a micropipettor according to Table 3 to obtain the desired concentration of antioxidant in wash water required for the testing.
To 1 L wash beaker was added 0.4 g Tide Free and Gentle detergent, 500 mL of wash water (as prepared in Table 2) and the antioxidant solution as described in Table 3. The wash beaker was placed in a tergetometer. To the wash beaker was added two incubated fabric swatches (4 g) followed by one 11 in×11 in 50/50 Cotton/Poly interlock knit clean fabric swatch (16 g, Style 74390B, Testfabrics, Inc.), for a total liquor to fabric ratio of 25:1. The fabrics were then washed in the tergotometer for 15 minutes and spun dried for one minute in a spin dryer (Mini Spin Dryer Model LASD-1 available from The Laundry Alternative, Inc.). […] The tests were run in triplicate and an average malodor reduction percent was calculated. […]
The percent malodor reduction is determined by GCMS using an Agilent Intuvo 9000 GC equipped with an Agilent 7000D GC/TQ mass spectrometer and a Trajan PAL 3 RTC sampler equipped with a solid phase micro-extraction (SPME) probe. […] The extracted ion chromatogram for 3-methyl-2-butenal includes Quantifier: 84, Qualifier: 55, Ratio: 35.7. […]

[2] = Stability of antioxidants in AATCC HE liquid detergent (crystallization/precipitation); assay type: physicochemical; conditions: room temperature, after 3 days
Description: A comparison of the stability of the antioxidants in standard AATCC detergent was made to highlight the benefit of having a plurality of molecules. Due to the highly crystalline nature of many commercially available antioxidants, they tend to be incompatible in detergent and will crystallize out of the detergent over time. The inventive compounds of this invention show improvements in remaining stable in liquid detergent.
The antioxidants in table 6 were combined with AATCC HE liquid detergent without optical brighteners (available from Test Fabrics, Inc., Item #0501001) in a 20 mL glass scintillation vial. The vials were placed in a sonicator for 1 hour, then heated to 80° C. for 30 minutes, whereby all samples were completely dissolved. The samples were removed from the oven, swirled briefly and hand then allowed to cool to room temperature. When the vials were cooled down to room temperature, the bottom of the vials were scratched with a metal spatula a few times to aide in the crystallization process, which can take a long time if left undisturbed. After an additional 3 days, observations were recorded as crystallization present or not present in Table 6.

## Cc1cc(CCC(=O)OCCOCCOCCOC(=O)CCc2cc(C)c(O)c(C(C)(C)C)c2)cc(C(C)(C)C)c1O [Irganox 245, 2-[2-(2-{3-[3-(tert-Butyl)-4-hydroxy-5-tolyl]propionoxy}ethoxy)ethoxy]ethyl 3-[3-(tert-butyl)-4-hydroxy-5-tolyl]propionate]
[1]; 2 ppm in wash water
  % Malodor marker reduction: 44.0%
[1]; 4 ppm in wash water
  % Malodor marker reduction: 74.4%
[1]; 8 ppm in wash water
  % Malodor marker reduction: 89.5%
[2]; loading 500 ppm in AATCC detergent
  Precipitation Seen: No
[2]; loading 1000 ppm in AATCC detergent
  Precipitation Seen: No
[2]; loading 5000 ppm in AATCC detergent
  Precipitation Seen: Yes
[2]; loading 10000 ppm in AATCC detergent
  Precipitation Seen: Yes
